Measurements from the CheMixHub ionic liquid set.

Experiment: xn = mol fraction of the nth substance listed
Conditions: 100 kPa

O=C(O)c1cccnc1 + CCCC[n+]1ccn(C)c1.[Br-] + O
viscosity [mPa·s]
Conditions | 308.15 K | 313.15 K | 318.15 K
x1 = 0.0002684, x2 = 0 | 0.734 | 0.666 | 0.61
x1 = 0.0002711, x2 = 0.0008999 | 0.754 | 0.677 | 0.62
x1 = 0.0002757, x2 = 0.001798 | 0.759 | 0.69 | 0.632
x1 = 0.0002802, x2 = 0.002695 | 0.796 | 0.75 | 0.681
x1 = 0.0005421, x2 = 0 | 0.737 | 0.669 | 0.614
x1 = 0.0005475, x2 = 0.0008997 | 0.756 | 0.678 | 0.621
x1 = 0.0005493, x2 = 0.001798 | 0.761 | 0.691 | 0.633
x1 = 0.0005547, x2 = 0.002694 | 0.797 | 0.751 | 0.682
x1 = 0.0008084, x2 = 0 | 0.742 | 0.673 | 0.617
x1 = 0.0008166, x2 = 0.0008994 | 0.758 | 0.68 | 0.622
x1 = 0.0008283, x2 = 0.001797 | 0.763 | 0.693 | 0.634
x1 = 0.0008364, x2 = 0.002693 | 0.799 | 0.753 | 0.683
x1 = 0.001084, x2 = 0 | 0.746 | 0.677 | 0.62
x1 = 0.001093, x2 = 0.0008992 | 0.759 | 0.681 | 0.624
x1 = 0.001104, x2 = 0.001797 | 0.765 | 0.694 | 0.635
x1 = 0.001114, x2 = 0.002693 | 0.801 | 0.754 | 0.684
x1 = 0.001351, x2 = 0 | 0.75 | 0.681 | 0.624
x1 = 0.001363, x2 = 0.000899 | 0.762 | 0.683 | 0.625
x1 = 0.001377, x2 = 0.001796 | 0.767 | 0.696 | 0.636
x1 = 0.00139, x2 = 0.002692 | 0.803 | 0.756 | 0.686
x1 = 0.001619, x2 = 0 | 0.754 | 0.685 | 0.628
x1 = 0.001635, x2 = 0.0008987 | 0.763 | 0.684 | 0.619
x1 = 0.001652, x2 = 0.001796 | 0.768 | 0.697 | 0.638
x1 = 0.001666, x2 = 0.002691 | 0.805 | 0.757 | 0.687
